For orientation: IC50 means the concentration that gives 50% inhibition. The low end stands for inhibition by little substance, the high end for a need for much substance. Usually MBC stands for the lowest tested concentration that kills the bacteria rather than only halting them. The low end stands for more potent killing, the high end for less potent killing. As usually defined, the MIC is the smallest concentration in the dilution series that meets the test's criterion for growth inhibition.

Results on nine compounds are retold here after ChEMBL document CHEMBL3596103, “Synthesis of novel amide functionalized 2H-chromene derivatives by Ritter amidation of primary alcohol using HBF4·OEt2 as a mild and versatile reagent and evaluation of their antimicrobial and anti-biofilm activities” (Bioorg Med Chem Lett, 2015).

Assay [1] deals with Raoultella planticola. As to the kind of experiment: Inhibition of bio-film formation of Klebsiella planticola MTCC 530 incubated for 24 hrs at 37 degC under static conditions by crystal violet staining method. Type of assay: functional, organism-based. To be noted: MTCC 530, 24 h.
The subject of assay [2] is Staphylococcus aureus. Put plainly: Bactericidal activity against Staphylococcus aureus MLS16 MTCC 2940 incubated for 24 hrs at 37 degC. The assay is classed as functional. To be noted: MLS16 MTCC 2940, 24 h.
Assay [3] relates to Micrococcus luteus. As to the kind of experiment: Inhibition of bio-film formation of Micrococcus luteus MTCC 2470 incubated for 24 hrs at 37 degC under static conditions by crystal violet staining method. The assay is classed as functional, organism-based. To be noted: MTCC 2470, 24 h.
The test system of assay [4] is Micrococcus luteus. As to the kind of experiment: Antimicrobial activity against Micrococcus luteus MTCC 2470 incubated for 24 hrs at 37 degC by well diffusion method. To be noted: MTCC 2470, 24 h. The assay is classed as functional. (In agar diffusion tests the substance spreads into inoculated agar from a disc or well.)
Assay [5] concerns Escherichia coli. As to the kind of experiment: Bactericidal activity against Escherichia coli MTCC 739 incubated for 24 hrs at 37 degC. Type of assay: functional. The conditions noted are these: MTCC 739, 24 h.
Assay [6] deals with Raoultella planticola. As to the kind of experiment: Antimicrobial activity against Klebsiella planticola MTCC 530 incubated for 24 hrs at 37 degC by well diffusion method. The assay is classed as functional. To be noted: MTCC 530, 24 h.
Assay [7] relates to Pseudomonas aeruginosa. As to the kind of experiment: Antimicrobial activity against Pseudomonas aeruginosa MTCC 2453 incubated for 24 hrs at 37 degC by well diffusion method. Type of assay: functional. To be noted: MTCC 2453, 24 h.
For assay [8], the system named is Raoultella planticola. Put plainly: Bactericidal activity against Klebsiella planticola MTCC 530 incubated for 24 hrs at 37 degC. To be noted: MTCC 530, 24 h. The assay is classed as functional.
Assay [9] deals with Micrococcus luteus. As to the kind of experiment: Bactericidal activity against Micrococcus luteus MTCC 2470 incubated for 24 hrs at 37 degC. To be noted: MTCC 2470, 24 h. Type of assay: functional.
Assay [10] relates to Staphylococcus aureus. Put plainly: Inhibition of bio-film formation of Staphylococcus aureus MLS16 MTCC 2940 incubated for 24 hrs at 37 degC under static conditions by crystal violet staining method. Type of assay: functional, organism-based. The conditions noted are these: MLS16 MTCC 2940, 24 h.
Assay [11] concerns Bacillus subtilis. Put plainly: Inhibition of bio-film formation of Bacillus subtilis MTCC 121 incubated for 24 hrs at 37 degC under static conditions by crystal violet staining method. The assay is classed as functional, organism-based. To be noted: MTCC 121, 24 h.
For assay [12], the system named is Escherichia coli. Put plainly: Inhibition of bio-film formation of Escherichia coli MTCC 739 incubated for 24 hrs at 37 degC under static conditions by crystal violet staining method. The assay is classed as functional, organism-based. The conditions noted are these: MTCC 739, 24 h.
The subject of assay [13] is Staphylococcus aureus. As to the kind of experiment: Antimicrobial activity against Staphylococcus aureus MLS16 MTCC 2940 incubated for 24 hrs at 37 degC by well diffusion method. Type of assay: functional. To be noted: MLS16 MTCC 2940, 24 h.
The subject of assay [14] is Bacillus subtilis. As to the kind of experiment: Antimicrobial activity against Bacillus subtilis MTCC 121 incubated for 24 hrs at 37 degC by well diffusion method. Type of assay: functional. The conditions noted are these: MTCC 121, 24 h.
Assay [15] relates to Candida albicans. Put plainly: Antimicrobial activity against Candida albicans MTCC 3017 incubated for 24 hrs at 30 degC by well diffusion method. Type of assay: functional. To be noted: MTCC 3017, 24 h.
The subject of assay [16] is Bacillus subtilis. Put plainly: Bactericidal activity against Bacillus subtilis MTCC 121 incubated for 24 hrs at 37 degC. The assay is classed as functional. To be noted: MTCC 121, 24 h.
Assay [17] deals with Escherichia coli. As to the kind of experiment: Antimicrobial activity against Escherichia coli MTCC 739 incubated for 24 hrs at 37 degC by well diffusion method. The assay is classed as functional. The conditions noted are these: MTCC 739, 24 h.
Assay [18] deals with Staphylococcus aureus. As to the kind of experiment: Induction of intracellular ROS accumulation in Staphylococcus aureus MLS16 MTCC 2940 sessile biofilm cells at 0.5 to 2 um incubated for 24 hrs at 35 degC by DCFH-DA dye based fluorescence assay. Type of assay: functional, organism-based.

Values after ≈ are worked out from the molar mass of the structure shown. Active and inactive are the calls of the source. Where only a bound is given, the exact number is not on record here.

Consider `O=C(Cc1ccc(Br)cc1)NCC1=Cc2cc(Br)ccc2OC1(O)C(F)(F)F` (stereo not drawn), for which the IC50 in assay [1] was 14.8 µM; in assay [3], 7.7 µM; in assay [10] it was 6.2 µM; in assay [11], 8.8 µM; in [12] it was 5.8 µM. Also, the minimum bactericidal concentration (MBC) came out at 14.3 µM (≈ 7.45 µg/mL) in assay [2]; 14.3 µM (≈ 7.45 µg/mL) in [5]; 57.3 µM (≈ 29.9 µg/mL) in [8]; 28.6 µM (≈ 14.9 µg/mL) in assay [9]; 28.6 µM (≈ 14.9 µg/mL) in [16]. Moreover, the MIC in [4] was 28.6 µM; in [6] it was 14.3 µM; in [7], above 125 µg/mL; in assay [13], 14.3 µM; in [14], 14.3 µM; in [15] it was above 125 µg/mL. The compound further displayed a minimal inhibitory concentration (MIC) in assay [17] of 14.3 µM.
Turning to `O=C(CCBr)NCC1=Cc2ccccc2OC1(O)C(F)(F)F` (stereo not drawn), the minimum inhibitory concentration (MIC) in assay [4], in assay [6], in assay [7], in assay [13], in assay [14] and in assay [15] was above 125 µg/mL in each case. The MIC in [17] is above 125 µg/mL.
For `O=C(O)c1cn(C2CC2)c2cc(N3CCNCC3)c(F)cc2c1=O` [CIPROFLOXACIN], the MBC in [2] stood at 2.7 µM (≈ 0.895 µg/mL); in [5], 5.7 µM (≈ 1.89 µg/mL); in assay [8], 2.7 µM (≈ 0.895 µg/mL); in assay [9], 5.7 µM (≈ 1.89 µg/mL); in [16] it was 5.7 µM (≈ 1.89 µg/mL). Moreover, the minimum inhibitory concentration (MIC) was 2.7 µM in assay [4]; 2.7 µM in assay [6]; 2.7 µM in [7]; 2.7 µM in assay [13]; 2.7 µM in assay [14]; above 125 µg/mL in [15]. Also, in assay [17], the minimum inhibitory concentration (MIC) came to 2.7 µM.
In the case of `O=C(CCBr)NCC1=Cc2cccc(F)c2OC1(O)C(F)(F)F` (stereo not drawn), the minimum inhibitory concentration (MIC) in [13] and in assay [15] was above 125 µg/mL throughout.
As for `O=C(Cc1cccc(Cl)c1)NCC1=Cc2cc(Br)ccc2OC1(O)C(F)(F)F` (stereo not drawn), the IC50 in assay [1] is 24.6 µM; in assay [3], 18.4 µM; in assay [10], 9.2 µM; in [11], 22.2 µM; in assay [12], 8.2 µM. Besides, the MBC in [2] stood at 37.1 µM (≈ 17.7 µg/mL); in [5], 37.1 µM (≈ 17.7 µg/mL); in assay [8] it was 74.2 µM (≈ 35.4 µg/mL); in assay [9], 74.2 µM (≈ 35.4 µg/mL); in assay [16] it was 74.2 µM (≈ 35.4 µg/mL). Further, the MIC in assay [4] was 31.2 µM; in [6], 31.2 µM; in assay [7] it was above 125 µg/mL; in assay [13], 15.6 µM; in assay [14], 31.2 µM; in assay [15], above 125 µg/mL. Also, in assay [17], 15.6 µM was the least that counted as inhibitory (MIC).
With `CC(=O)NCC1=Cc2cc(Br)ccc2OC1(O)C(F)(F)F` (stereo not drawn), the MIC in [4], in assay [6], in assay [7], in [13], in assay [14] and in assay [15] was above 125 µg/mL throughout. Further, the MIC in assay [17] was above 125 µg/mL.
As for `O=C(CBr)NCC1=Cc2cc(Br)ccc2OC1(O)C(F)(F)F` (stereo not drawn), the IC50 in assay [1] turned out to be 1.7 µM; in assay [3], 1.7 µM; in assay [10] it was 1.2 µM; in [11] it was 1.4 µM; in assay [12], 1.4 µM. Further, the minimal bactericidal concentration (MBC) in assay [2] turned out to be 4 µM (≈ 1.78 µg/mL); in assay [5], 16.6 µM (≈ 7.39 µg/mL); in [8], 8.3 µM (≈ 3.69 µg/mL); in [9], 8.3 µM (≈ 3.69 µg/mL); in [16] it was 4 µM (≈ 1.78 µg/mL). For the same compound, the MIC in assay [4] is 8.3 µM; in assay [6], 4 µM; in assay [7], above 125 µg/mL; in assay [13], 4 µM; in assay [14], 4 µM; in assay [15], above 125 µg/mL. This compound registered an MIC in assay [17] of 8.3 µM. The outcome in assay [18] was Active.
For the compound `O=C(CCBr)NCC1=Cc2cc(Br)ccc2OC1(O)C(F)(F)F` (stereo not drawn), the minimum inhibitory concentration (MIC) in [4], in assay [6], in assay [7], in assay [13], in assay [14] and in assay [15] was above 125 µg/mL throughout. The minimum inhibitory concentration (MIC) in assay [17] is above 125 µg/mL.
For the compound `CC[C@H]1OC(=O)[C@H](C)[C@@H](O[C@H]2C[C@@](C)(OC)[C@@H](O)[C@H](C)O2)[C@H](C)[C@@H](O[C@@H]2O[C@H](C)C[C@H](N(C)C)[C@H]2O)[C@](C)(O)C[C@@H](C)C(=O)[C@H](C)[C@@H](O)[C@]1(C)O` [ERYTHROMYCIN], the 50% inhibitory concentration (IC50) in assay [1] turned out to be 0.35 µM; in [3] it was 0.31 µM; in [10], 0.25 µM; in [11], 0.42 µM; in [12] it was 0.43 µM. Also, in [18], the outcome was Active.
